From patent publication US6737383B1, “Herbicidal oxadiazolidines” (priority 1999, dated 2004)

How the values were obtained:
bedstraw = test: Test B pre/postemergence bedstraw; format: in vivo, Galium aparine
Procedure, shortened: (§1)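 Test chemicals in a non-phytotoxic solvent mixture with surfactant were sprayed preemergence onto planted seeds and postemergence onto plants 2 to 18 cm tall (1- to 4-leaf stage). After twelve to sixteen days in a greenhouse, injury was visually rated against untreated controls from 0 (no effect) to 10 (complete control).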

blackgrass = test: Test B pre/postemergence blackgrass; format: in vivo, Alopecurus myosuroides
Procedure, shortened: as §1

surinam grass = test: Test B pre/postemergence surinam grass; format: in vivo, Brachiaria decumbens
Procedure, shortened: as §1

cocklebur = test: Test B pre/postemergence cocklebur; format: in vivo, Xanthium strumarium
Procedure, shortened: as §1

corn = test: Test B pre/postemergence corn; format: in vivo, Zea mays
Procedure, shortened: as §1

crabgrass = test: Test B pre/postemergence crabgrass; format: in vivo, Digitaria sanguinalis
Procedure, shortened: as §1

soybean = test: Test B pre/postemergence soybean; format: in vivo, Glycine max
Procedure, shortened: as §1

sugar beet = test: Test B pre/postemergence sugar beet; format: in vivo, Beta vulgaris; conditions: for Plant response rating, Sugarbeets: Rate 250 g/ha
Procedure, shortened: as §1

velvetleaf = test: Test B pre/postemergence velvetleaf; format: in vivo, Abutilon theophrasti; conditions: for Plant response rating, Velvetleaf: Rate 250 g/ha
Procedure, shortened: as §1

wheat = test: Test B pre/postemergence wheat; format: in vivo, Triticum aestivum; conditions: for Plant response rating, Wheat: Rate 250 g/ha
Procedure, shortened: as §1

wild oat = test: Test B pre/postemergence wild oat; format: in vivo, Avena fatua; conditions: for Plant response rating, Wild oats: Rate 250 g/ha
Procedure, shortened: as §1

purple nutsedge = test: Test B pre/postemergence purple nutsedge; format: in vivo, Cyperus rotundus
Procedure, shortened: as §1

rice = test: Test B flood test rice; format: in vivo, Oryza sativa
Procedure, shortened: (§2)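 Plants were grown to the 2-leaf stage before treatment with test chemical, then held in a greenhouse for twelve to sixteen days. Injury was visually rated against untreated controls on a 0–10 scale, where 0 is no effect and 10 is complete control.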

smallflower flatsedge = test: Test B flood test smallflower flatsedge; format: in vivo, Cyperus difformis
Procedure, shortened: as §2

duck salad = test: Test B flood test duck salad; format: in vivo, Heteranthera limosa
Procedure, shortened: as §2

bamyardgrass = test: Test B flood test barnyardgrass; format: in vivo, Echinochloa crus-galli
Procedure, shortened: as §2

[1] = Postemergence, Rate 62 g/ha, scale 0 to 10, 0 is no effect, 10 is complete control
[2] = Postemergence, Rate 250 g/ha, scale 0 to 10, 0 no effect, 10 complete control
[3] = Preemergence, Rate 62 g/ha, scale 0 to 10 (0 no effect, 10 complete control)
[4] = Preemergence, Rate 125 g/ha, scale 0 to 10 (0 no effect, 10 complete control)
[5] = Preemergence, Rate 250 g/ha, scale of 0 to 10 where 0 is no effect and 10 is complete control
[6] = Preemergence, Rate 500 g/ha, scale 0 to 10 (0 no effect, 10 complete control)
[7] = Rate 125 g/ha, Postemergence, scale 0 to 10, 0 no effect, 10 complete control
[8] = Rate 500 g/ha, Postemergence, scale 0 to 10, 0 no effect, 10 complete control
[9] = Postemergence, Rate 125 g/ha, scale of 0 to 10 where 0 is no effect and 10 is complete control
[10] = Rate 62 g/ha, Postemergence, scale of 0 to 10 where 0 is no effect and 10 is complete control
[11] = Preemergence, Rate 125 g/ha, 0 is no effect, 10 is complete control
[12] = Preemergence, scale of 0 to 10 where 0 is no effect and 10 is complete control
[13] = Postemergence, scale 0 to 10, 0 is no effect, 10 is complete control
[14] = Postemergence (flood test species), Rate 125 g/ha, scale of 0 to 10 where 0 is no effect and 10 is complete control
[15] = Rate 62 g/ha, Postemergence section, flood test species, scale of 0 to 10 where 0 is no effect and 10 is complete control
[16] = Rate 250 g/ha, Postemergence (flood test), scale 0 to 10, 0 is no effect, 10 is complete control
[17] = Rate 500 g/ha, listed under Postemergence (flood test species), scale 0 to 10, 0 no effect, 10 complete control
[18] = flood test, listed under Postemergence, Rate 250 g/ha, scale 0 to 10, 0 no effect, 10 complete control

CC(C)N(C(=O)n1oc(=O)n(Cc2ccccc2)c1=O)c1ccc(Cl)cc1 [Compound 106]
Bedstraw plant response rating (bedstraw; [1]): 0 | Bedstraw plant response rating (bedstraw; [2]): 3 | Bedstraw plant response rating (bedstraw; [3]): 0 | Plant response rating, Bedstraw (bedstraw; [4]): 0 | Plant response rating, Bedstraw (bedstraw; [5]): 3 | Bedstraw plant response rating (bedstraw; [6]): 4 | Bedstraw plant response rating (bedstraw; [7]): 0 | Bedstraw plant response rating (bedstraw; [8]): 7 | Blackgrass plant response rating (blackgrass; [9]): 0 | Blackgrass plant response rating (blackgrass; [2]): 1 | Blackgrass plant response rating (blackgrass; [3]): 0 | Plant response rating, Blackgrass (blackgrass; [4]): 0 | Plant response rating, Blackgrass (blackgrass; [5]): 0 | Blackgrass plant response rating (blackgrass; [6]): 2 | Blackgrass plant response rating (blackgrass; [10]): 0 | Blackgrass plant response rating (blackgrass; [8]): 3 | B. signalgrass plant response rating (surinam grass; [1]): 0 | B. signalgrass plant response rating (surinam grass; [2]): 0 | B. signalgrass plant response rating (surinam grass; [3]): 0 | Plant response rating, B. signalgrass (surinam grass; [4]): 0 | Plant response rating, B. signalgrass (surinam grass; [5]): 0 | B. signalgrass plant response rating (surinam grass; [6]): 2 | B. signalgrass plant response rating (surinam grass; [7]): 0 | B. signalgrass plant response rating (surinam grass; Rate 500 g/ha, Postemergence, scale of 0 to 10 where 0 is no effect and 10 is complete control): 0 | Cocklebur plant response rating (cocklebur; [9]): 2 | Cocklebur plant response rating (cocklebur; [2]): 2 | Cocklebur plant response rating (cocklebur; [3]): 0 | Plant response rating, Cocklebur (cocklebur; [4]): 0 | Plant response rating, Cocklebur (cocklebur; [5]): 0 | Cocklebur plant response rating (cocklebur; [6]): 0 | Cocklebur plant response rating (cocklebur; [10]): 0 | Cocklebur plant response rating (cocklebur; [8]): 4 | Corn plant response rating (corn; [9]): 0 | Corn plant response rating (corn; [2]): 0 | Corn plant response rating (corn; [3]): 0 | Plant response rating, Corn (corn; [4]): 0 | Plant response rating, Corn (corn; [5]): 0 | Corn plant response rating (corn; [6]): 0 | Corn plant response rating (corn; [10]): 0 | Corn plant response rating (corn; [8]): 0 | Crabgrass plant response rating (crabgrass; [9]): 0 | Crabgrass plant response rating (crabgrass; [2]): 3 | Crabgrass plant response rating (crabgrass; [3]): 0 | Plant response rating, Crabgrass (crabgrass; [4]): 0 | Plant response rating, Crabgrass (crabgrass; [5]): 8 | Crabgrass plant response rating (crabgrass; [6]): 8 | Crabgrass plant response rating (crabgrass; [10]): 0 | Crabgrass plant response rating (crabgrass; [8]): 6 | Soybean plant response rating (soybean; [9]): 0 | Soybean plant response rating (soybean; [3]): 0 | Plant response rating, Soybean (soybean; [4]): 0 | Plant response rating, Soybean (soybean; [5]): 0 | Soybean plant response rating (soybean; [6]): 0 | Soybean plant response rating (soybean; [10]): 0 | Plant response rating, Soybean (soybean; Rate 250 g/ha, Postemergence, scale 0 to 10, 0 is no effect, 10 is complete control): 1 | Soybean plant response rating (soybean; [8]): 1 | Sugarbeets plant response rating (sugar beet; [9]): 0 | Sugarbeets plant response rating (sugar beet; [3]): 0 | Sugarbeets plant response rating (0 to 10 scale) (sugar beet; [11]): 0 | Plant response rating, Sugarbeets (sugar beet; [12]): 0 | Sugarbeets plant response rating (sugar beet; [6]): 2 | Sugarbeets plant response rating (sugar beet; [10]): 0 | Plant response rating, Sugarbeets (sugar beet; [13]): 0 | Sugarbeets plant response rating (sugar beet; [8]): 0 | Velvetleaf plant response rating (velvetleaf; [9]): 0 | Velvetleaf plant response rating (velvetleaf; [3]): 0 | Velvetleaf plant response rating (0 to 10 scale) (velvetleaf; [11]): 0 | Plant response rating, Velvetleaf (velvetleaf; [12]): 0 | Velvetleaf plant response rating (velvetleaf; [6]): 0 | Velvetleaf plant response rating (velvetleaf; [10]): 0 | Plant response rating, Velvetleaf (velvetleaf; [13]): 2 | Velvetleaf plant response rating (velvetleaf; [8]): 2 | Wheat plant response rating (wheat; [9]): 0 | Wheat plant response rating (wheat; [3]): 0 | Wheat plant response rating (0 to 10 scale) (wheat; [11]): 0 | Plant response rating, Wheat (wheat; [12]): 0 | Wheat plant response rating (wheat; [6]): 0 | Wheat plant response rating (wheat; [10]): 0 | Plant response rating, Wheat (wheat; [13]): 0 | Wheat plant response rating (wheat; [8]): 0 | Wild oats plant response rating (wild oat; [9]): 0 | Wild oats plant response rating (wild oat; [3]): 0 | Wild oats plant response rating (0 to 10 scale) (wild oat; [11]): 0 | Plant response rating, Wild oats (wild oat; [12]): 0 | Wild oats plant response rating (wild oat; [6]): 0 | Wild oats plant response rating (wild oat; [10]): 0 | Plant response rating, Wild oats (wild oat; [13]): 0 | Wild oats plant response rating (wild oat; [8]): 0 | Nutsedge plant response rating (purple nutsedge; [9]): 0 | Nutsedge plant response rating (purple nutsedge; [2]): 0 | Nutsedge plant response rating (purple nutsedge; [3]): 0 | Plant response rating, Nutsedge (purple nutsedge; [4]): 0 | Plant response rating, Nutsedge (purple nutsedge; [5]): 0 | Nutsedge plant response rating (purple nutsedge; [6]): 0 | Nutsedge plant response rating (purple nutsedge; [10]): 0 | Nutsedge plant response rating (purple nutsedge; [8]): 0 | Rice plant response rating (rice; [14]): 0 | Rice plant response rating (rice; [15]): 0 | Plant response rating, Rice (rice; [16]): 0 | Rice plant response rating (rice; [17]): 0 | S. Flatsedge plant response rating (smallflower flatsedge; [14]): 0 | S. Flatsedge plant response rating (smallflower flatsedge; [15]): 0 | Plant response rating, S. Flatsedge (smallflower flatsedge; [16]): 0 | S. Flatsedge plant response rating (smallflower flatsedge; [17]): 0 | Ducksalad plant response rating (duck salad; [14]): 0 | Ducksalad plant response rating (duck salad; [15]): 0 | Ducksalad plant response rating (duck salad; [17]): 0 | Ducksalad plant response rating (duck salad; [18]): 0 | Barnyardgrass plant response rating (bamyardgrass; [1]): 0 | Barnyardgrass plant response rating (bamyardgrass; Rate 125 g/ha, Postemergence section (flood test species), scale 0 to 10, 0 no effect, 10 complete control): 0 | Barnyardgrass plant response rating (bamyardgrass; [17]): 0 | Barnyardgrass plant response rating (bamyardgrass; [18]): 0
